The target of test [1] is Gamma-aminobutyric acid receptor subunit alpha-4 (Rattus norvegicus, UniProt P28471).
The target of test [2] is Gamma-aminobutyric acid receptor subunit alpha-2 (Rattus norvegicus, UniProt P23576).
Test [3] addresses Gamma-aminobutyric acid receptor subunit alpha-1 (Rattus norvegicus, UniProt P62813).
The target in test [4] is Gamma-aminobutyric acid receptor subunit alpha-5 (Rattus norvegicus, UniProt P19969).
The target of test [5] is Gamma-aminobutyric acid receptor subunit alpha-3 (Rattus norvegicus, UniProt P20236).
Chain of Gamma-aminobutyric acid receptor subunit alpha-3 (P20236 whole entry I342M/K409L): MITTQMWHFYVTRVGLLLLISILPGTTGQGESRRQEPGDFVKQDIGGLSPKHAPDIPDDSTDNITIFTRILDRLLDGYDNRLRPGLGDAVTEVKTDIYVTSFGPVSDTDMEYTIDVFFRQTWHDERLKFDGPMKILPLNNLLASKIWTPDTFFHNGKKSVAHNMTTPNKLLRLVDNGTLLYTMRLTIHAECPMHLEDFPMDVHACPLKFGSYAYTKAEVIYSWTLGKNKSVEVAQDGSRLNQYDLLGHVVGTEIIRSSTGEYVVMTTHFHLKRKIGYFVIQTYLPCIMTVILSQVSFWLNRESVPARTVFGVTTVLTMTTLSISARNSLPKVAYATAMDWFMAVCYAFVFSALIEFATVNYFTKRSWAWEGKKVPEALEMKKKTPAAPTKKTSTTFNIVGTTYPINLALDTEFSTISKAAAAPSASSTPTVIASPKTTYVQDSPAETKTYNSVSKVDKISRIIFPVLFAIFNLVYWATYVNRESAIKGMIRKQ
Test [6] deals with Gamma-aminobutyric acid receptor subunit alpha-6 (Rattus norvegicus, UniProt P30191).
Chain of Gamma-aminobutyric acid receptor subunit alpha-6 (P30191 whole entry): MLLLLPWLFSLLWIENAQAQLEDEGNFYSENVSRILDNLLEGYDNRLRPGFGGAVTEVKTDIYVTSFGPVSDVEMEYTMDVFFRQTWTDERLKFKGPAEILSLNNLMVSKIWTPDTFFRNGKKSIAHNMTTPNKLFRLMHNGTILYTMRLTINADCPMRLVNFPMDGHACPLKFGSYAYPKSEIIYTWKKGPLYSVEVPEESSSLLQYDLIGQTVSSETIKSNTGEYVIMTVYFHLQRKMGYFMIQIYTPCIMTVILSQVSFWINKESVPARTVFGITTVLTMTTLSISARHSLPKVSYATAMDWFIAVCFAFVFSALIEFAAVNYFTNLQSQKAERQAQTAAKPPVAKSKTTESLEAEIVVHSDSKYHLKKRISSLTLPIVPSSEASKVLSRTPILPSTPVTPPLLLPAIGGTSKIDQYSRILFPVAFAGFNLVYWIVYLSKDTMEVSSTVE

Data on two molecules can be found in BindingDB's records for PubMed 10991999 (Cocensys, 2000).

Chain of Gamma-aminobutyric acid receptor subunit alpha-5 (P19969 whole entry): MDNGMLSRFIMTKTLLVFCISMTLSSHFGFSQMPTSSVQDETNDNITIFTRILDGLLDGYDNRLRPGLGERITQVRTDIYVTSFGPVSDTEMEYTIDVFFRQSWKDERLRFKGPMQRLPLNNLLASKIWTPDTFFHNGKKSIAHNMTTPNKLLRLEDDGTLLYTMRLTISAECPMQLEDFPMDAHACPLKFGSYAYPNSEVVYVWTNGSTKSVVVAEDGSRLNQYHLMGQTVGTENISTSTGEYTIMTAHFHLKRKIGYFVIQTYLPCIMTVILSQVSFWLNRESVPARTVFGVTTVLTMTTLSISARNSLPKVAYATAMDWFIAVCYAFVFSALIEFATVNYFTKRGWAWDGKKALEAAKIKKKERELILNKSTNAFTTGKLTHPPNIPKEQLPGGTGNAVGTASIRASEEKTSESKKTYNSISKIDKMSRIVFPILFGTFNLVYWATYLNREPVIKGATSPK
Chain of Gamma-aminobutyric acid receptor subunit alpha-2 (P23576 whole entry): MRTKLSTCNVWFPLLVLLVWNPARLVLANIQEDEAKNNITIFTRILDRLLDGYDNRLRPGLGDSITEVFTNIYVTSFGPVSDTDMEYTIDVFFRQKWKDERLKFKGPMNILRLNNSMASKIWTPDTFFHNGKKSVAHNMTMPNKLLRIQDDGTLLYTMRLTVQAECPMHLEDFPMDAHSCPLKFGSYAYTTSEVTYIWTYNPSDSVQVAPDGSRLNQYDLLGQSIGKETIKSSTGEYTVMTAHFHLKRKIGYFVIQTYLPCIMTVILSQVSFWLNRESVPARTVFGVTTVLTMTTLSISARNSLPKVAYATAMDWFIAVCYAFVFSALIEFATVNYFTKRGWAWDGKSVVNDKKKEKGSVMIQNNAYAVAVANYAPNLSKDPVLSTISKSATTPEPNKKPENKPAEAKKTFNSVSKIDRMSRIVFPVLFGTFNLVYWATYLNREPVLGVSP
Chain of Gamma-aminobutyric acid receptor subunit alpha-1 (P62813 whole entry): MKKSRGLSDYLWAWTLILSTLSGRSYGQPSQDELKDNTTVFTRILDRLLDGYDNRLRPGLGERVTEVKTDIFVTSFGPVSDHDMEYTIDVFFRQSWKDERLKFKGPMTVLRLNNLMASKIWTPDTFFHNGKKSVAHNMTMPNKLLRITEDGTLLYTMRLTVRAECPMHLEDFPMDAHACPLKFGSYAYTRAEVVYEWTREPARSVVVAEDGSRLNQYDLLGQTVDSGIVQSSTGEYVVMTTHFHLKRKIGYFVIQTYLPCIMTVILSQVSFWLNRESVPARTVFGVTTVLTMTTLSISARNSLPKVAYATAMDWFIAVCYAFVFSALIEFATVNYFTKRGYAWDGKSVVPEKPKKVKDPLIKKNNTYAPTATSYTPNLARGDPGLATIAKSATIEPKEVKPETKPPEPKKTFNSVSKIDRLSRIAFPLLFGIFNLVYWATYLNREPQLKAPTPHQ
Chain of Gamma-aminobutyric acid receptor subunit alpha-4 (P28471 whole entry): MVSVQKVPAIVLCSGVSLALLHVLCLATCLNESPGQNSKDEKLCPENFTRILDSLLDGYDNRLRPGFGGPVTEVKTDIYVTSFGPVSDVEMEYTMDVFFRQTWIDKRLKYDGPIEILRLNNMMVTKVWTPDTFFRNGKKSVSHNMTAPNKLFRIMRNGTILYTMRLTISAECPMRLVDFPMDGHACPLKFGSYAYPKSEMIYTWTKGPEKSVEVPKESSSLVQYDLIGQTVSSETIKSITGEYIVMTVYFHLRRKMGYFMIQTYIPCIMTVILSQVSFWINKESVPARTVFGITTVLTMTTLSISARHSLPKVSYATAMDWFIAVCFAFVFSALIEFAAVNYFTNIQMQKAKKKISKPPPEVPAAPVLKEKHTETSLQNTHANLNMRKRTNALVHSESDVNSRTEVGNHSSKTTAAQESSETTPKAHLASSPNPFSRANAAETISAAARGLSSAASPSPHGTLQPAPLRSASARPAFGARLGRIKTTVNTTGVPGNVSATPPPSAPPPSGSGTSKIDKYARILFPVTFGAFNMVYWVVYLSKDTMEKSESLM

Usually Ki stands for a measure of affinity in units of concentration, obtained from inhibition or displacement. Take `CC(=O)C1CCC2C3CC[C@H]4C[C@H](O)CC[C@]4(C)C3CC[C@]12C` (stereo partly specified) [Allopregnanolone]: the Ki in test [1] turned out to be 1900 nM; in test [2], 41 nM; in test [3], 17.5 nM; in test [4] it was 21 nM; in test [5], 20 nM.

Consider `C[C@]12CC[C@H]3[C@@H](CC[C@@H]4C[C@@](O)(C(F)(F)F)CC[C@@H]43)[C@@H]1CC[C@@H]2C(=O)CO` [GMA-839], for which the Ki was determined as 2300 nM in test [1]; 200 nM in test [2]; 200 nM in test [3]; 210 nM in test [4]; 96 nM in test [5]; 2000 nM in test [6].
